# Test results taken from ChEMBL document CHEMBL4831503, “Design, synthesis, in vitro and in vivo anti-respiratory syncytial virus (RSV) activity of novel oxizine fused benzimidazole derivatives” (Eur J Med Chem, 2021).
# The source made the active and inactive calls. No cut-off for these calls is given here.
# Experiments:
# [1] = tested on: Respiratory syncytial virus; test: Antiviral activity against Respiratory syncytial virus infected in human HEp-2 cells incubated for 60 hrs by MTT assay; assay type: functional, organism-based; conditions: HEp-2, 60 h
# [2] = Cytotoxicity against human HEp-2 cells assessed as reduction in cell viability measured after 60 hrs by MTT assay; assay type: cell-based
# [3] = Selectivity index, ratio of CC50 for human HEp-2 cells to EC50 for Respiratory syncytial virus infected in human HEp-2 cells; assay type: toxicity, cell-based; conditions: read-out: Selectivity Index
# [4] = tested on: Respiratory syncytial virus; test: Inhibition of RSV induced apoptosis in human HEp-2 cells assessed as early apoptotic cells at 25 uM measured after 60 hrs by Annexin V-FITC/PI staining based flow cytometry analysis (reference value: 10.3%); assay type: functional; parameters: scale not given: the % may be the effect or the level left
# [5] = tested on: Respiratory syncytial virus; test: Inhibition of RSV induced apoptosis in human HEp-2 cells assessed as late apoptotic cells at 25 uM measured after 60 hrs by Annexin V-FITC/PI staining based flow cytometry analysis (reference value: 20.2%); assay type: functional; parameters: scale not given: the % may be the effect or the level left
# [6] = tested on: Respiratory syncytial virus; test: Inhibition of RSV induced apoptosis in human HEp-2 cells assessed as reduction in PARP cleavage measured after 48 hrs by Western blot analysis; assay type: functional, organism-based
# [7] = tested on: Respiratory syncytial virus; test: Inhibition of RSV induced apoptosis in human HEp-2 cells assessed as reduction in cleaved caspase-7 expression measured after 48 hrs by Western blot analysis; assay type: functional, organism-based
# [8] = tested on: Respiratory syncytial virus; test: Inhibition of RSV induced apoptosis in human HEp-2 cells assessed as reduction in cleaved caspase-9 expression measured after 48 hrs by Western blot analysis; assay type: functional, organism-based
# [9] = tested on: Respiratory syncytial virus; test: Inhibition of RSV induced apoptosis in human HEp-2 cells assessed as reduction in cleaved caspase-3 expression measured after 60 hrs by Western blot analysis; assay type: functional, organism-based
# [10] = Inhibition of RSV induced ROS production in human HEp-2 cells assessed as reduction in accumulation of ROS-positive cells at 25 uM measured after 36 hrs by DCHF-DA staining based flow cytometry analysis (reference value: 82.2%); assay type: functional, Respiratory syncytial virus; parameters: scale not given: the % may be the effect or the level left
# [11] = tested on: Respiratory syncytial virus; test: Antiviral activity against RSV infected in human HEp-2 cells assessed as downregulation of NF-kappaB expression at 25 uM treated 48 hpi and measured after 48 hrs by Western blot analysis; assay type: functional, organism-based
# [12] = tested on: Respiratory syncytial virus; test: Antiviral activity against RSV infected in human HEp-2 cells assessed as downregulation of RIG-1 expression at 25 uM treated 48 hpi and measured after 48 hrs by Western blot analysis; assay type: functional, organism-based
# [13] = Toxicity in BALB/c mouse infected with RSV-Long assessed as body weight loss at 50 mg/kg/day administered via gastric gavage once daily for 6 days; assay type: organism-based; conditions: in vivo, po, 144 h, time 6 day
# [14] = tested on: Respiratory syncytial virus; test: Antiviral activity against RSV Long infected in BALB/c mouse assessed as reduction in lung tissue damage by measuring lung index at 50 mg/kg/day measured after 4 to 6 days of virus infection; assay type: functional, organism-based; conditions: time 4-6 day
# [15] = tested on: Respiratory syncytial virus; test: Antiviral activity against RSV Long infected in BALB/c mouse assessed as improvement in lung congestion at 25 to 100 mg/kg/day observed on day 6 after infection by H and E staining based microscopic analysis; assay type: functional, organism-based; conditions: dose 25-100 mg/kg/day, time 6.0 day
# [16] = tested on: Respiratory syncytial virus; test: Antiviral activity against RSV Long infected in BALB/c mouse assessed as inhibition of alveolar infiltrates accumulation at 50 mg/kg/day observed on day 6 after infection by H and E staining based microscopic analysis; assay type: functional, organism-based; conditions: time 6.0 day
# [17] = tested on: Respiratory syncytial virus; test: Antiviral activity against RSV infected in BALB/c mouse assessed as inhibition of viral replication by measuring RSV-M gene expression in lung after 2 to 6 days post infection by RT-PCR analysis; assay type: functional, organism-based; conditions: time 2-6 day
# [18] = tested on: Respiratory syncytial virus; test: Antiviral activity against RSV infected in BALB/c mouse assessed as downregulation of RIG-1 expression in lung tissue infected with RSV at 50 mg/kg/day measured after 2 days post infection by RT-PCR analysis; assay type: functional, organism-based; conditions: time 2.0 day
# [19] = tested on: Respiratory syncytial virus; test: Antiviral activity against RSV infected in BALB/c mouse assessed as downregulation of IRF3 expression in lung tissue infected with RSV at 50 mg/kg/day measured after 2 to 4 days post infection by RT-PCR analysis; assay type: functional, organism-based; conditions: time 2-4 day
# [20] = tested on: Respiratory syncytial virus; test: Antiviral activity against RSV infected in BALB/c mouse assessed as downregulation of TLR3 expression in lung tissue infected with RSV at 50 mg/kg/day measured after 2 to 6 days post infection by RT-PCR analysis; assay type: functional, organism-based; conditions: time 2-6 day
# [21] = tested on: Respiratory syncytial virus; test: Antiviral activity against RSV infected in BALB/c mouse assessed as downregulation of IL-6 expression in lung tissue infected with RSV at 50 mg/kg/day measured after 2 days post infection by RT-PCR analysis; assay type: functional, organism-based; conditions: time 2.0 day
# [22] = tested on: Respiratory syncytial virus; test: Antiviral activity against RSV infected in BALB/c mouse assessed as downregulation of IL-8 expression in lung tissue infected with RSV at 50 mg/kg/day measured after 2 to 6 days post infection by RT-PCR analysis; assay type: functional, organism-based; conditions: time 2-6 day
# [23] = tested on: Respiratory syncytial virus; test: Antiviral activity against RSV infected in BALB/c mouse assessed as downregulation of IL-10 expression in lung tissue infected with RSV at 50 mg/kg/day measured after 2 to 6 days post infection by RT-PCR analysis; assay type: functional, organism-based; conditions: time 2-6 day
# [24] = tested on: Respiratory syncytial virus; test: Antiviral activity against RSV infected in BALB/c mouse assessed as downregulation of iNOS expression in lung tissue infected with RSV at 50 mg/kg/day measured after 2 to 6 days post infection by RT-PCR analysis; assay type: functional, organism-based; conditions: time 2-6 day
# [25] = tested on: Respiratory syncytial virus; test: Antiviral activity against RSV infected in BALB/c mouse assessed as downregulation of TNF-alpha expression in lung tissue infected with RSV at 50 mg/kg/day measured after 2 to 6 days post infection by RT-PCR analysis; assay type: functional, organism-based; conditions: time 2-6 day
smiles,measurement,setting,value
O[C@@H]1CO[C@H]2[C@@H]1OCc1nc3cc(Br)cc(Cl)c3n12,EC50,[1],86.2 µM
same,CC50 at 60 h,[2],> 800 µM
OC[C@@H](O)[C@@H]1Cn2c(nc3ccccc32)CO1,CC50 at 60 h,[2],> 800 µM
O[C@@H]1CO[C@H]2[C@@H]1OCc1nc3cc(F)c(F)cc3n12,EC50,[1],> 400 µM
same,CC50 at 60 h,[2],512 µM
COc1ccc2c(nc3n2[C@H]2OC[C@@H](O)[C@H]2OC3)c1[N+](=O)[O-],CC50 at 60 h,[2],468 µM
Cc1cc2nc3n(c2cc1C)[C@H]1OC[C@@H](O)[C@H]1OC3,CC50 at 60 h,[2],492 µM
Cc1ccc(S(=O)(=O)O[C@@H]2CO[C@H]3[C@@H]2OCc2nc4cc(Br)c(C)c(Br)c4n23)cc1,EC50,[1],8.28 µM
same,CC50 at 60 h,[2],88.6 µM
same,selectivity ratio,[3],10.7
Cc1ccc(S(=O)(=O)O[C@@H]2CO[C@H]3[C@@H]2OCc2nc4cc(Br)c(Br)cc4n23)cc1,EC50,[1],64.7 µM
same,CC50 at 60 h,[2],87.5 µM
same,selectivity ratio,[3],1.35
COc1ccc2c(c1)nc1n2[C@H]2OC[C@@H](O)[C@H]2OC1,CC50 at 60 h,[2],> 800 µM
CS(=O)(=O)O[C@@H]1CO[C@H]2[C@@H]1OCc1nc3cc(Br)c(Br)cc3n12,EC50,[1],87.9 µM
same,CC50 at 60 h,[2],99.5 µM
same,selectivity ratio,[3],1.13
COc1c(Cl)cc2c(nc3n2[C@H]2OC[C@@H](O)[C@H]2OC3)c1Cl,CC50 at 60 h,[2],411 µM
O[C@@H]1CO[C@H]2[C@@H]1OCc1nc3ccccc3n12,CC50 at 60 h,[2],564 µM
Cc1c(Br)cc2c(nc3n2[C@H]2OC[C@@H](O)[C@H]2OC3)c1Br,CC50 at 60 h,[2],34.3 µM
Cc1c(Br)cc2c(nc3n2[C@H]2OC[C@H](N=[N+]=[N-])[C@H]2OC3)c1Br,EC50,[1],13 µM
same,CC50 at 60 h,[2],33.1 µM
same,selectivity ratio,[3],2.54
Cc1c(Br)cc2c(nc3n2[C@H]2OC[C@@H](OCc4ccccc4)[C@H]2OC3)c1Br,CC50 at 60 h,[2],25.6 µM
Cc1c(Br)cc2c(nc3n2[C@H]2OC[C@@H](OS(C)(=O)=O)[C@H]2OC3)c1Br,CC50 at 60 h,[2],15.6 µM
O[C@@H]1CO[C@H]2[C@@H]1OCc1nc3cc(Br)c(Br)cc3n12,EC50,[1],31.9 µM
same,CC50 at 60 h,[2],181 µM
same,selectivity ratio,[3],5.67
O[C@@H]1CO[C@H]2[C@@H]1OCc1nc3cc(Cl)c(Cl)cc3n12,CC50 at 60 h,[2],238 µM
Cc1c(Br)cc2nc3n(c2c1Br)[C@H]1OC[C@@H](OS(C)(=O)=O)[C@H]1OC3,EC50,[1],5.98 µM
same,CC50 at 60 h,[2],23.7 µM
same,selectivity ratio,[3],3.96
OC[C@@H](O)[C@@H]1Cn2c(nc3cc(F)c(F)cc32)CO1,EC50,[1],65.2 µM
same,CC50 at 60 h,[2],653 µM
same,selectivity ratio,[3],10
Cc1cc2nc3n(c2cc1C)C[C@@H]([C@H](O)CO)OC3,CC50 at 60 h,[2],574 µM
COc1ccc2c(c1)nc1n2C[C@@H]([C@H](O)CO)OC1,CC50 at 60 h,[2],366 µM
Cc1c(Br)cc2nc3n(c2c1Br)[C@H]1OC[C@H](N=[N+]=[N-])[C@H]1OC3,CC50 at 60 h,[2],21.4 µM
NC(=O)c1ncn([C@@H]2O[C@H](CO)[C@@H](O)[C@H]2O)n1 [RIBAVIRIN],EC50,[1],18.5 µM
same,CC50 at 60 h,[2],418 µM
same,selectivity ratio,[3],22.6
same,Activity,[4],0.3%
same,Activity,[5],7.6%
same,inhibition,[6],Active
same,inhibition,[7],Active
same,inhibition,[8],Active
same,inhibition,[9],Active
same,Activity,[10],62.7%
same,Activity,[11],Active
same,Activity,[12],Active
same,Activity,[13],Toxic
same,Activity,[14],Active
same,Activity,[15],Active
same,Activity,[16],Active
same,Activity,[17],Active
same,Activity,[18],inactive
same,Activity,[19],Active
same,Activity,[20],Active
same,Activity,[21],Active
same,Activity,[22],Active
same,Activity,[23],Active
same,Activity,[24],Active
same,Activity,[25],Active
Cc1ccc(S(=O)(=O)O[C@@H]2CO[C@H]3[C@@H]2OCc2nc4c(Br)c(C)c(Br)cc4n23)cc1,EC50,[1],1.57 µM
same,CC50 at 60 h,[2],8.94 µM
same,selectivity ratio,[3],5.68
[N-]=[N+]=N[C@H]1CO[C@H]2[C@@H]1OCc1nc3cc(Br)c(Br)cc3n12,CC50 at 60 h,[2],77.4 µM
COc1c(Br)cc2c(nc3n2[C@H]2OC[C@@H](O)[C@H]2OC3)c1Br,CC50 at 60 h,[2],259 µM
Cc1c(Br)cc2nc3n(c2c1Br)[C@H]1OC[C@@H](OCc2ccccc2)[C@H]1OC3,EC50,[1],44.5 µM
same,CC50 at 60 h,[2],115 µM
same,selectivity ratio,[3],2.59
same,Activity,[23],Active
COc1ccc2c(nc3n2[C@H]2OC[C@@H](O)[C@H]2OC3)c1N,EC50,[1],11.3 µM
same,CC50 at 60 h,[2],109 µM
same,selectivity ratio,[3],9.66
